Laboratory results: publication PMC12670405, “Second-Generation AURKA-Targeting PROTACs: Structural Optimization toward in Vivo Degradation in Neuroblastoma” (Journal of Medicinal Chemistry, 2025)
Like-named read-outs stand apart in the source and are kept apart here.

Experiments:
[1] = system: NGP; experiment: IncuCyte live-cell imaging, antiproliferative effect; type: cell-based; settings: Homo sapiens, 72 h
Description: Human neuroblastoma cell lines NGP, IMR-32, SJNB-8, SK-N-BE(2)-C, SJNB-1, SK-N-SH and SK-N-AS, as well as benign immortalized cell lines RPE and HEK293T were either bought commercially or obtained through research laboratories. […] Screening for mycoplasma contamination occurred routinely on the cells. Human neuroblastoma cell lines SH-SY5Y_shABCB1 & SH-SY5Y_shNTC were generated by transduction with pLKO.1-ABCB1_TRCN0000059683 shRNA (Sigma MISSION SHCLND) or pLKO.1-puro NT shRNA (Sigma MISSION SHC002) vectors respectively (Supplementary Table S6), packaged using Lenti-X293T (Clontech). Transduced cells were selected with 2 μg/mL puromycin. These cells were cultured in DMEM 4.5 g/L D-Glucose, L-Glutamine and 110 mg/L Sodium Pyruvate (Gibco, #11995065) supplemented with 10% fetal bovine serum, 1× Antibiotic-Antimycotic solution (Sigma-Aldrich, #A5955) and 1× MEM nonessential amino acids (Sigma-Aldrich, #M7145). Incubation of all cells occurred at 37 °C and 5% CO2.
Neuroblastoma cells were seeded in 384-well plates at different densities ranging from 1200 to 5000 cells/well and allowed to adhere overnight. RPE and HEK293T were seeded at 200 and 600 cells/well, respectively. Compound treatment was performed using the D300e Digital Dispenser (Tecan) in duplicate or triplicate and cell confluency was monitored over time using the IncuCyte Live-cell imaging system (Sartorius). […] Mean normalized confluences were calculated from 3 individual experiments.
All dose–response curves were computed on GraphPad Prism using the Variable Slope (four parameters) equation. Absolute half-maximal degradation (DC50), growth inhibitory (GI50) and enzymatic inhibitory (IC50) concentrations, as well as inhibition constants (Ki) were derived from dose–response curves via interpolation. Statistical tests were performed on GraphPad Prism and detailed in the figure legends. Unless otherwise stated, “n” in the figure legends indicates the number of independent experiments conducted at different times.

[2] = biological target: T1, AURKA (Homo sapiens, UniProt O14965); experiment: AURKA degradation, Simple Western; type: cell-based; design: Representative Western blot showing levels of endogenous proteins MDR1, MYCN, AURKA, and CRBN in untreated cell lines; endogenous in cells; host or cells: NGP, IMR-32, SJNB-8, SK-N-BE(2)-C, SK-N-SH, SK-N-AS, SJNB-1, RPE, HEK293T; settings: for pDC50: AURKA degradation; for DC50: read-out: AURKA DC50;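 as to AURKA Degradation 24h @1000nM: measured in NGP neuroblastoma cells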;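 as to AURKA Degradation 24h @100nM: measured in NGP neuroblastoma cells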
T1 sequence (O14965 1-403): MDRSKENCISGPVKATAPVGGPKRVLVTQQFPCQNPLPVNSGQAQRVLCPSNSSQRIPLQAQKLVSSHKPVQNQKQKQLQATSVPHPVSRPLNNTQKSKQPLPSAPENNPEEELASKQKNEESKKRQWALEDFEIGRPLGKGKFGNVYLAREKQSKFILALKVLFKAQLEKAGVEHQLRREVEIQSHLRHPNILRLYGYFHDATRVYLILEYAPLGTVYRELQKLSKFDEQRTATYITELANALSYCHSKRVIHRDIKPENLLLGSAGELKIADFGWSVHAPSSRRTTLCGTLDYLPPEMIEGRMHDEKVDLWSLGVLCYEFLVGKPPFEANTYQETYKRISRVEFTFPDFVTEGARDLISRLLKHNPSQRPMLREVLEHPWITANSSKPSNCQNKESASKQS
Procedure: Cells were seeded in T-25 flasks at different densities ranging from 1 to 2 million cells per flask and allowed to adhere for 1–2 days. In experiments involving compound treatment, this was done by medium replacement containing the compound(s) of interest in their corresponding concentrations. In competition binding experiments, cells were first pretreated with an excess of MK-5108, thalidomide or MG-132 for 1 h by shaking gently at room temperature prior to addition of SK4454 or SK5527. All samples were normalized to contain the same percentage of DMSO as the negative DMSO controls. Cells were harvested on ice at their respective time points by scraping, washed with ice-cold PBS to collect remaining cells, and centrifuged (2500 rpm, 4 °C). A second washing and centrifugation step was performed prior to collection of the final cell pellets which were then snap-frozen in liquid nitrogen and kept frozen at −80 °C until further processing. Lysis of cell pellets occurred in cold RIPA buffer (0.5% w/v Sodium Deoxycholate, 150 mM NaCl, 50 mM TrisHCl pH 7.5, 0.1% w/v SDS, 1% w/v NP-40) supplemented with protease and phosphatase inhibitors (Roche, #11836145001, #04906845001) by rotating gently at 4 °C for 1h, followed by a centrifugation step for 10 min (10,000 rpm, 4 °C). The supernatant was collected and concentrations of the obtained protein lysates were measured using the Pierce BCA Protein Assay Kit (Thermo Fisher Scientific, #23227).
Simple Western analyses were performed with the Wes instrument (Bio-Techne) using the 12–230 kDa Wes Separation module and the EZ standard pack reagent 1 (Biotechne, #SM-W001, #PS-ST01EZ-8) following the manufacturer’s protocol. Protein lysates were loaded at 0.8 μg/μL under denaturing conditions (0.2 μg/μL for MYCN detection). Chemiluminescence peaks were generated by the Compass Software (Bio-Techne) and the area under the peaks calculated using the Gaussian fit method. Per lane, quantified data were always normalized to that of the loading control (Vinculin) prior to calculating fold changes relative to the negative DMSO control. Mean fold changes are calculated from 3 individual experiments. A list of the primary and secondary antibodies used can be found in the Supporting Information (Supplementary Table S7).
Graphs were generated using GraphPad Prism Software (version 10.1.2) or RStudio (R-4.3.2). All dose–response curves were computed on GraphPad Prism using the Variable Slope (four parameters) equation. Absolute half-maximal degradation (DC50), growth inhibitory (GI50) and enzymatic inhibitory (IC50) concentrations, as well as inhibition constants (Ki) were derived from dose–response curves via interpolation. Statistical tests were performed on GraphPad Prism and detailed in the figure legends. Unless otherwise stated, “n” in the figure legends indicates the number of independent experiments conducted at different times.

SMILES | AURKA Degradation 24h @100nM [2] | AURKA Degradation 24h @1000nM [2] | pDC50 [2] | DC50 [2] [nM] | AURKA degradation activity (in words) ([2]; NGP, 24 h treatment) | Dmax ([2]; NGP, 24 h treatment) [%] | GI50 ([1]; read-out: GI50 72h, 72h) [nM] | GI50 ([1]; read-out: pGI50 (converted)) [nM]
O=C1CCC(N2C(=O)c3ccc(N4CCN(C(=O)CNC(=O)[C@]5(Cc6cccc(Nc7nccs7)n6)CC[C@@H](Oc6cccc(Cl)c6F)CC5)CC4)cc3C2=O)C(=O)N1 (stereo partly drawn) [PROTAC 5] | 76 | 75 |  |  |  |  | 51 | 51.3
O=C1CCC(N2C(=O)c3ccc(N4CCN(CCOCCNC(=O)[C@]5(Cc6cccc(Nc7nccs7)n6)CC[C@@H](Oc6cccc(Cl)c6F)CC5)CC4)cc3C2=O)C(=O)N1 (stereo partly drawn) [PROTAC 6] | 76 | 82 |  |  |  |  | 64 | 63.1
O=C1CCC(N2C(=O)c3ccc(N4CCN(C(=O)COCCNC(=O)[C@]5(Cc6cccc(Nc7nccs7)n6)CC[C@@H](Oc6cccc(Cl)c6F)CC5)CC4)cc3C2=O)C(=O)N1 (stereo partly drawn) [PROTAC 7] | 68 | 77 |  |  |  |  | 112 | 112
O=C1CCC(N2C(=O)c3ccc(N4CCN(CCOCCOCCNC(=O)[C@]5(Cc6cccc(Nc7nccs7)n6)CC[C@@H](Oc6cccc(Cl)c6F)CC5)CC4)cc3C2=O)C(=O)N1 (stereo partly drawn) [PROTAC 8] | 76 | 75 |  |  |  |  | 56 | 56.2
O=C1CCC(N2C(=O)c3ccc(OCCN4CCN(C(=O)[C@]5(Cc6cccc(Nc7nccs7)n6)CC[C@@H](Oc6cccc(Cl)c6F)CC5)CC4)cc3C2=O)C(=O)N1 (stereo partly drawn) [PROTAC 10] | 72 | 80 |  |  |  |  | 52 | 52.5
O=C1CCC(N2C(=O)c3ccc(OCCOCCN4CCN(C(=O)[C@]5(Cc6cccc(Nc7nccs7)n6)CC[C@@H](Oc6cccc(Cl)c6F)CC5)CC4)cc3C2=O)C(=O)N1 (stereo partly drawn) [PROTAC 11] | 78 | 80 | 8,31 | 4.9 |  |  | 38 | 38
O=C1CCC(Nc2ccc(N3CCN(C(=O)[C@]4(Cc5cccc(Nc6nccs6)n5)CC[C@@H](Oc5cccc(Cl)c5F)CC4)CC3)cc2)C(=O)N1 (stereo partly drawn) [PROTAC 12] | 12 | < 0 |  |  | failed to reduce AURKA levels and instead led to its upregulation |  | 715 | 708
O=C1CCC(Nc2ccc(N3CCN(CC4CN(C(=O)[C@]5(Cc6cccc(Nc7nccs7)n6)CC[C@@H](Oc6cccc(Cl)c6F)CC5)C4)CC3)cc2)C(=O)N1 (stereo partly drawn) [PROTAC 17] | 59 | 88 | 7,29 | 51.1 |  |  | 39 | 38.9
O=C1CCC(Nc2ccc(N3CCN(CC4CCN(C(=O)[C@]5(Cc6cccc(Nc7nccs7)n6)CC[C@@H](Oc6cccc(Cl)c6F)CC5)CC4)CC3)c(F)c2)C(=O)N1 (stereo partly drawn) [PROTAC 19] | 83 | 93 |  |  |  |  | 53 | 52.5
O=C1CCN(c2ccc(N3CCN(C4CCN(C(=O)[C@]5(Cc6cccc(Nc7nccs7)n6)CC[C@@H](Oc6cccc(Cl)c6F)CC5)C4)CC3)nc2)C(=O)N1 (stereo partly drawn) [PROTAC 26] | 71 | 71 | 8,3 | 5 |  |  | 45 | 44.7
Cc1cc(Nc2ccc(F)c(CC3(C(=O)N4CCC(CN5CCC(c6ccc(CN7CCC(=O)NC7=O)cn6)CC5)CC4)CCN(Cc4cccc(Cl)c4F)CC3)n2)n[nH]1 [PROTAC 30] | 42 | 59 |  |  | weak degradation potency | 59 | 158 | 158
Cc1cc(Nc2ccc(F)c(CC3(C(=O)N4CC(CN5CCN(c6ccc(N7CCC(=O)NC7=O)cn6)CC5)C4)CCN(Cc4cccc(Cl)c4F)CC3)n2)n[nH]1 [PROTAC 31] | 80 | 89 |  |  |  |  | 98 | 97.7

More lines, main results first:

AURKA Degradation 24h @100nM [2] | AURKA Degradation 24h @1000nM [2] | pDC50 [2] | DC50 [2] [nM] | AURKA degradation activity (in words) ([2]; NGP, 24 h treatment) | Dmax ([2]; NGP, 24 h treatment) [%] | SMILES | GI50 ([1]; read-out: GI50 72h, 72h) [nM] | GI50 ([1]; read-out: pGI50 (converted)) [nM]
70 | 81 |  |  |  |  | O=C1CCC(N2C(=O)c3cccc(N4CCN(C(=O)COCCOCCNC(=O)[C@]5(Cc6cccc(Nc7nccs7)n6)CC[C@@H](Oc6cccc(Cl)c6F)CC5)CC4)c3C2=O)C(=O)N1 (stereo partly drawn) [PROTAC 2] | 72 | 72.4
64 | 83 |  |  |  |  | O=C1CCC(N2C(=O)c3ccc(N4CCN(C(=O)COCCOCCNC(=O)[C@]5(Cc6cccc(Nc7nccs7)n6)CC[C@@H](Oc6cccc(Cl)c6F)CC5)CC4)cc3C2=O)C(=O)N1 (stereo partly drawn) [PROTAC 9] | 112 | 112
68 | 91 | 7,9 | 12.5 |  |  | O=C1CCC(Nc2ccc(N3CCN(CCNC(=O)[C@]4(Cc5cccc(Nc6nccs6)n5)CC[C@@H](Oc5cccc(Cl)c5F)CC4)CC3)cc2)C(=O)N1 (stereo partly drawn) [PROTAC 13] | 30 | 29.5
38 | 55 |  |  | only weak AURKA-degrading activity |  | O=C1CCC(Nc2ccc(N3CCN(C(=O)COCCNC(=O)[C@]4(Cc5cccc(Nc6nccs6)n5)CC[C@@H](Oc5cccc(Cl)c5F)CC4)CC3)cc2)C(=O)N1 (stereo partly drawn) [PROTAC 15] | 93 | 93.3
39 | 75 |  |  | only weak AURKA-degrading activity |  | O=C1CCC(Nc2ccc(N3CCN(C(=O)COCCOCCNC(=O)[C@]4(Cc5cccc(Nc6nccs6)n5)CC[C@@H](Oc5cccc(Cl)c5F)CC4)CC3)cc2)C(=O)N1 (stereo partly drawn) [PROTAC 16] | 78 | 77.6
